Data as given in patent US8735414B2 (priority 2009, dated 2014).

Assays:
[1] = system: bicistronic HCV replicon (replicon RNA, GenBank Accession No. AJ242654); assay: HCV Replicon Assay; format: cell-based; details: Hepatitis C virus, 72 h, read-out: Replicon IC50

Row | Structure (SMILES) | IC50 [1] | melting point
1 | COc1ccc2c(C#N)c(-c3ncc(S(=O)(=O)NC(CF)CF)cn3)n(C3CCCCC3)c2c1 [compound 520, 2-(3-cyano-1-cyclohexyl-6-methoxy-1H-indol-2-yl)-N-(1,3-difluoropropan-2-yl)pyrimidine-5-sulfonamide] | 500 to 2000 nM | 209 to 215 °C
2 | Cc1cc2c(C#N)c(-c3ccc(S(=O)(=O)NC(CF)CF)cn3)n(C3CCCC3)c2cc1Cl [compound 521, 6-(6-chloro-3-cyano-1-cyclopentyl-5-methyl-1H-indol-2-yl)-N-(1,3-difluoropropan-2-yl)pyridine-3-sulfonamide] | < 500 nM | 217.5 to 218 °C
3 | Cc1cc2c(C#N)c(-c3ccc(S(=O)(=O)N[C@@H](C)C(F)(F)F)cn3)n(C3CCCC3)c2cc1Cl [compound 522, 6-(6-chloro-3-cyano-1-cyclopentyl-5-methyl-1H-indol-2-yl)-N-[(2S)-1,1,1-trifluoropropan-2-yl]pyridine-3-sulfonamide] | < 500 nM | 186 to 187 °C
4 | Cc1cc2c(C#N)c(-c3ncc(S(=O)(=O)NC(C)C)cn3)n(C3CCCC3)c2cc1Cl [compound 523, 2-(6-chloro-3-cyano-1-cyclopentyl-5-methyl-1H-indol-2-yl)-N-(propan-2-yl)pyrimidine-5-sulfonamide] | 500 to 2000 nM | 216 to 216.5 °C
5 | Cc1ccc2c(c1)c(C#N)c(-c1ncc(S(=O)(=O)NC(CF)CF)cn1)n2CC1CC1 [compound 524, 2-[3-cyano-1-(cyclopropylmethyl)-5-methyl-1H-indol-2-yl]-N-(1,3-difluoropropan-2-yl)pyrimidine-5-sulfonamide] | < 500 nM | 151 to 155 °C
6 | Cc1ccc2c(c1)c(C#N)c(-c1ccc(S(=O)(=O)N[C@@H](C)C3CC3)cn1)n2CC1CC1 [compound 525, 6-[3-cyano-1-(cyclopropylmethyl)-5-methyl-1H-indol-2-yl]-N-[(1S)-1-cyclopropylethyl]pyridine-3-sulfonamide] | 500 to 2000 nM | 181 to 185 °C
7 | CC(C)NS(=O)(=O)c1cnc(-c2c(C#N)c3cc(F)ccc3n2C2CCCCC2)nc1 [compound 526, 2-(3-cyano-1-cyclohexyl-5-fluoro-1H-indol-2-yl)-N-(propan-2-yl)pyrimidine-5-sulfonamide] | < 500 nM | 223 to 225 °C
8 | N#Cc1c(-c2ncc(S(=O)(=O)NC(CF)CF)cn2)n(C2CCCCC2)c2ccc(F)cc12 [compound 527, 2-(3-cyano-1-cyclohexyl-5-fluoro-1H-indol-2-yl)-N-(1,3-difluoropropan-2-yl)pyrimidine-5-sulfonamide] | < 500 nM | 250 to 253 °C
9 | C[C@H](NS(=O)(=O)c1cnc(-c2c(C#N)c3cc(F)ccc3n2C2CCCCC2)nc1)C1CC1 [compound 528, 2-(3-cyano-1-cyclohexyl-5-fluoro-1H-indol-2-yl)-N-[(1S)-1-cyclopropylethyl]pyrimidine-5-sulfonamide] | < 500 nM | 219 to 221 °C
10 | CC(C)n1c(-c2ncc(S(=O)(=O)N[C@@H](C)C3CC3)cn2)c(C#N)c2cc(F)ccc21 [compound 529, 2-[3-cyano-5-fluoro-1-(propan-2-yl)-1H-indol-2-yl]-N-[(1S)-1-cyclopropylethyl]pyrimidine-5-sulfonamide] | < 500 nM | 176 to 179 °C
11 | C[C@H](NS(=O)(=O)c1cnc(-c2c(C#N)c3cc(F)ccc3n2C2CCCC2)nc1)C1CC1 [compound 530, 2-(3-cyano-1-cyclopentyl-5-fluoro-1H-indol-2-yl)-N-[(1S)-1-cyclopropylethyl]pyrimidine-5-sulfonamide] | < 500 nM | 184 to 186 °C
12 | C[C@H](NS(=O)(=O)c1cnc(-c2c(C#N)c3cc(F)ccc3n2CC2CC2)nc1)C1CC1 [compound 531, 2-[3-cyano-1-(cyclopropylmethyl)-5-fluoro-1H-indol-2-yl]-N-[(1S)-1-cyclopropylethyl]pyrimidine-5-sulfonamide] | < 500 nM | 184 to 188 °C
13 | Cc1c(F)cc2c(C#N)c(-c3ccc(S(=O)(=O)N[C@@H](C)C(F)(F)F)cn3)n(C3CCC3)c2c1F [compound 532, 6-(3-cyano-1-cyclobutyl-5,7-difluoro-6-methyl-1H-indol-2-yl)-N-[(2S)-1,1,1-trifluoropropan-2-yl]pyridine-3-sulfonamide] | < 500 nM | 186 to 191 °C
14 | Cc1c(F)cc2c(C#N)c(-c3ccc(S(=O)(=O)NC(CF)CF)cn3)n(C3CCC3)c2c1F [compound 533, 6-(3-cyano-1-cyclobutyl-5,7-difluoro-6-methyl-1H-indol-2-yl)-N-(1,3-difluoropropan-2-yl)pyridine-3-sulfonamide] | < 500 nM | 158 to 170 °C
15 | C[C@@H](NS(=O)(=O)c1ccc(-c2c(C#N)c3ccc(OC(F)F)cc3n2-c2ccccn2)nc1)C(F)(F)F [compound 534, 6-[3-cyano-6-(difluoromethoxy)-1-(pyridin-2-yl)-1H-indol-2-yl]-N-[(2R)-1,1,1-trifluoropropan-2-yl]pyridine-3-sulfonamide] | < 500 nM | 159 to 161 °C
16 | N#Cc1c(-c2ncc(S(=O)(=O)NC(CF)CF)cn2)n(C2CCCC2)c2ccc(C(F)F)cc12 [compound 536, 2-[3-cyano-1-cyclopentyl-5-(difluoromethyl)-1H-indol-2-yl]-N-(1,3-difluoropropan-2-yl)pyrimidine-5-sulfonamide] | < 500 nM | 176 to 177 °C
17 | C[C@H](NS(=O)(=O)c1ccc(-c2c(C#N)c3cc(C(F)F)ccc3n2C2CCCC2)nc1)C(F)(F)F [compound 537, 6-[3-cyano-1-cyclopentyl-5-(difluoromethyl)-1H-indol-2-yl]-N-[(2S)-1,1,1-trifluoropropan-2-yl]pyridine-3-sulfonamide] | < 500 nM | 187 to 188 °C
18 | C[C@@H](NS(=O)(=O)c1ccc(-c2c(C#N)c3cc(C(F)F)ccc3n2C2CCCC2)nc1)C(F)(F)F [compound 538, 6-[3-cyano-1-cyclopentyl-5-(difluoromethyl)-1H-indol-2-yl]-N-[(2R)-1,1,1-trifluoropropan-2-yl]pyridine-3-sulfonamide] | < 500 nM | 186 to 188 °C
19 | Cc1cc2c(cc1F)c(C#N)c(-c1ccc(S(=O)(=O)NC(C)(C)C(F)(F)F)cn1)n2C1CCC1 [compound 539, 6-(3-cyano-1-cyclobutyl-5-fluoro-6-methyl-1H-indol-2-yl)-N-(1,1,1-trifluoro-2-methylpropan-2-yl)pyridine-3-sulfonamide] | < 500 nM | 238 to 243 °C
20 | Cc1cc2c(cc1F)c(C#N)c(-c1ccc(S(=O)(=O)NC(CF)CF)cn1)n2-c1ccccn1 [compound 540, 6-[3-cyano-5-fluoro-6-methyl-1-(pyridin-2-yl)-1H-indol-2-yl]-N-(1,3-difluoropropan-2-yl)pyridine-3-sulfonamide] | < 500 nM | 233 to 236 °C
21 | Cc1cc2c(cc1F)c(C#N)c(-c1ccc(S(=O)(=O)N[C@@H](C)C(F)(F)F)cn1)n2-c1ccccn1 [compound 541, 6-[3-cyano-5-fluoro-6-methyl-1-(pyridin-2-yl)-1H-indol-2-yl]-N-[(2S)-1,1,1-trifluoropropan-2-yl]pyridine-3-sulfonamide] | < 500 nM | 160 to 164 °C
22 | N#Cc1c(-c2ccc(S(=O)(=O)NC(CF)CF)cn2)n(C2CCC2)c2cc(OC(F)F)c(F)cc12 [compound 542, 6-[3-cyano-1-cyclobutyl-6-(difluoromethoxy)-5-fluoro-1H-indol-2-yl]-N-(1,3-difluoropropan-2-yl)pyridine-3-sulfonamide] | < 500 nM | 160 to 164 °C
23 | C[C@H](NS(=O)(=O)c1cnc(-c2c(C#N)c3cc(F)ccc3n2C2CCC2)nc1)C1CC1 [compound 544, 2-(3-cyano-1-cyclobutyl-5-fluoro-1H-indol-2-yl)-N-[(1S)-1-cyclopropylethyl]pyrimidine-5-sulfonamide] | < 500 nM | 178 to 181 °C
24 | Cc1ccc2c(c1)c(C#N)c(-c1ncc(S(=O)(=O)N[C@@H](C)C3CC3)cn1)n2C1CCC1 [compound 545, 2-(3-cyano-1-cyclobutyl-5-methyl-1H-indol-2-yl)-N-[(1S)-1-cyclopropylethyl]pyrimidine-5-sulfonamide] | < 500 nM | 168 to 171 °C
25 | CC(C)n1c(-c2ncc(S(=O)(=O)N[C@@H](C)C(F)(F)F)cn2)c(C#N)c2cc(F)ccc21 [compound 546, 2-[3-cyano-5-fluoro-1-(propan-2-yl)-1H-indol-2-yl]-N-[(2S)-1,1,1-trifluoropropan-2-yl]pyrimidine-5-sulfonamide] | 500 to 2000 nM | 172 to 176 °C
26 | C[C@H](NS(=O)(=O)c1cnc(-c2c(C#N)c3cc(F)ccc3n2C2CCCC2)nc1)C(F)(F)F [compound 547, 2-(3-cyano-1-cyclopentyl-5-fluoro-1H-indol-2-yl)-N-[(2S)-1,1,1-trifluoropropan-2-yl]pyrimidine-5-sulfonamide] | < 500 nM | 214 to 218 °C
27 | C[C@H](NS(=O)(=O)c1cnc(-c2c(C#N)c3cc(F)ccc3n2CC2CC2)nc1)C(F)(F)F [compound 548, 2-[3-cyano-1-(cyclopropylmethyl)-5-fluoro-1H-indol-2-yl]-N-[(2S)-1,1,1-trifluoropropan-2-yl]pyrimidine-5-sulfonamide] | 500 to 2000 nM | 175 to 180 °C
28 | COc1ccc2c(c1)c(C#N)c(-c1ccc(S(=O)(=O)NC(CF)CF)cn1)n2C1CCC1 [compound 550, 6-(3-cyano-1-cyclobutyl-5-methoxy-1H-indol-2-yl)-N-(1,3-difluoropropan-2-yl)pyridine-3-sulfonamide] | < 500 nM | 149 to 150 °C
29 | COc1ccc2c(c1)c(C#N)c(-c1ncc(S(=O)(=O)NC(CF)CF)cn1)n2C1CCC1 [compound 551, 2-(3-cyano-1-cyclobutyl-5-methoxy-1H-indol-2-yl)-N-(1,3-difluoropropan-2-yl)pyrimidine-5-sulfonamide] | < 500 nM | 217 to 219 °C
